One series concerns HMC-1-8 cells. In words: Antiproliferation assay (CellTiter-Glo, 72 h), HMC-1-8. It counts as cell-based. Conditions: IC50, median, HMC-1-8, 72 h, read-out: Antiproli HMC-1-8 [M] median. The procedure: (§1) Assessment of the Anti-Proliferative Effect of Compounds in Different Cell Lines
(§2) The impact of compounds on the proliferation of different cell lines was assessed using the CellTiter-Glo® Luminescent Cell Viability reagent from Promega (G7573).
(§3) In parallel, cells were plated in a reference (day 0) plate for time zero determination.
(§4) Rim wells were excluded. The cells were incubated for 72 h hours in a humidified incubator at 37° C. The day 0 plate was measured by adding 30 μL/well of CTG solution (CellTiter-Glo® Luminescent Cell Viability reagent, Promega G7573) to time zero wells in the reference plate followed by a 10 minutes incubation and luminescence reading at 0.1 ms. using the PHERAstar FS microplate reader (BMG Labtech).
(§5) After 72 h incubation, the treated plates were measured in the same way as the day 0 plate mentioned above.
(In general: ATP-based viability assays read luminescence as a measure of living cells.)

Series [1] relates to SUDHL5 cells. Kind of series: Induction of cytotoxicity (CellTiter-Glo, 5 h), SUDHL5. Conditions: SUDHL5, 5 h.
The next series concerns AMO-1 cells. Kind of series: Antiproliferation assay (CellTiter-Glo, 72 h), AMO-1. The series is classed as cell-based. To be noted: IC50, median, AMO-1, 72 h, read-out: Antiproli AMO-1 [M] median. The gist of the method: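 Cells were incubated with compounds for 72 h at 37°C. Viability was then read by CellTiter-Glo luminescence, and a parallel day 0 plate read the same way gave the time-zero signal.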

Series [2] relates to SUDHL5 cells. In words: Induction of caspase-3/7 activity (Caspase-Glo 3/7), SUDHL5. It counts as cell-based. To be noted: EC50, median, SUDHL5, 3 h treatment. The method, boiled down:
(§6)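 DLBCL lines treated with compounds for 3 h at 37 °C in a humidified incubator; caspase-3/7 activity read with Caspase-Glo 3/7 luminescent reagent. Medium-only background subtracted from all values.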

The subject of series [3] is SUDHL10 cells. In words: Induction of cytotoxicity (CellTiter-Glo, 5 h), SUDHL10. Conditions: SUDHL10, 5 h.
Series [4] relates to SUDHL10 cells. Kind of series: Induction of caspase-3/7 activity (Caspase-Glo 3/7), SUDHL10. It counts as cell-based. Conditions: EC50, median, SUDHL10, 3 h treatment. The method, boiled down:
as §6

Series [5] concerns SUDHL5 cells. Kind of series: Antiproliferation assay (CellTiter-Glo, 72 h), SUDHL5. Conditions: IC50, median; SUDHL5, 72 h; listed as 075; read-out: Antiproli SUDHL5 [M] (median). The series is classed as cell-based. The procedure:
as §1, §2, §3, §4, §5

Where [6] appears, read: read-out: Cytotox SUDHL5 [M] (median), IC50, median.
[7] abbreviates: Homo sapiens, SU-DHL10, 5 h, read-out: Cytotox SUDHL10 [M] (median), IC50, median.

The term EC50 denotes the concentration that produces a half-maximal response. High values mean a less potent agent, low ones a more potent agent.

Counter-ions that a name gives are not always drawn. Like-named read-outs stand apart in the source and are kept apart here.

In the case of `CCc1c2c(nn1C)CN(CCN1CCOCC1)CCCCn1c(C(=O)O)c(CCCOc3cccc4cc(F)ccc34)c3ccc(Cl)c-2c31` (single isomer, unassigned; enantiomer 1) [Example 142, 4-chloro-3-ethyl-7-{3-[(6-fluoronaphthalen-1-yl)oxy]propyl}-2-methyl-14-[2-(morpholin-4-yl)ethyl]-10,11,12,13,14,15-hexahydro-2H-pyrazolo[3′,4′:8,9][1,6]diazacycloundecino[10,11,1-hi]indole-8-carboxylic acid (Enantiomer 1)], the IC50 in the series with HMC-1-8 cells amounted to 7.5e-07 M.

With `CCc1nn(CCN2CCOCC2)c2c1-c1c(Cl)ccc3c(CCCOc4cccc5ccccc45)c(C(=O)O)n(c13)C/C=C\CN(C)C2` (single isomer, unassigned; enantiomer 2) [Example 44, (11Z)-4-chloro-3-ethyl-14-methyl-1-[2-(morpholin-4-yl)ethyl]-7-{3-[(naphthalen-1-yl)oxy]propyl}-10,13,14,15-tetrahydro-1H-pyrazolo[3′,4′:8,9][1,6]diazacycloundecino[10,11,1-hi]indole-8-carboxylic acid-ammonia salt (Enantiomer 2)], the IC50 is 7e-07 M in the series with SUDHL5 cells [1] (setting [6]), 2.1e-06 M with HMC-1-8 cells (72 h) and 1.1e-06 M with AMO-1 cells.

As for `Cc1c2c(nn1CCCN1CCN(C)CC1)COCCCCn1c(C(=O)O)c(CCCOc3cccc4ccccc34)c3ccc(Cl)c-2c31` (single isomer, unassigned; enantiomer 2) [Example 50, (−)-4-chloro-3-methyl-2-[3-(4-methylpiperazin-1-yl)propyl]-7-{3-[(naphthalen-1-yl)oxy]propyl}-2,10,11,12,13,15-hexahydropyrazolo[4′,3′:9,10][1,6]oxazacycloundecino[8,7,6-hi]indole-8-carboxylic acid (Enantiomer 2)], the response with SUDHL5 cells [2] was half-maximal at 0.36 µM (EC50). The results for the IC50 in the series with SUDHL5 cells [1] (setting [6]), in the series with HMC-1-8 cells (72 h) and with AMO-1 cells were 4.4e-07 M, 3.1e-06 M and 1.3e-06 M, respectively.

With `Cc1c2c(nn1C)COCCC(F)(F)Cn1c(C(=O)O)c(CCCOc3cccc4cc(F)ccc34)c3ccc(Cl)c-2c31` (racemic) [Example 93, (rac)-4-Chloro-11,11-difluoro-7-{3-[(6-fluoronaphthalen-1-yl)oxy]propyl}-2,3-dimethyl-2,10,11,12,13,15-hexahydropyrazolo[4′,3′:9,10][1,6]oxazacycloundecino[8,7,6-hi]indole-8-carboxylic acid], the IC50 in the series with SUDHL5 cells [1] (Homo sapiens, SU-DHL-5, 5 h, read-out: Cytotox SUDHL5 [M] (median), IC50, median) was 3.5e-07 M; with HMC-1-8 cells (72 h) it was 4.9e-06 M; in the series with AMO-1 cells (Homo sapiens, AMO1, 72 h), 1.2e-06 M; with SUDHL10 cells [3] (setting [7]) it was 4.3e-07 M. Also, in the series on SUDHL10 cells [4] (Homo sapiens, SU-DHL10, 3 h), the EC50 is 0.22 µM.

Consider `Cc1c2c(nn1C)CN(C)CCCCn1c(C(=O)O)c(CCCOc3cccc4ccccc34)c3ccc(Cl)c-2c31` (racemic) [Example 11, (rac)-4-chloro-2,3,14-trimethyl-7-[3-(naphthalen-1-yloxy)propyl]-10,11,12,13,14,15-hexahydro-2H-pyrazolo[3′,4′:8,9][1,6]diazacycloundecino[10,11,1-hi]indole-8-carboxylic acid], for which the IC50 with HMC-1-8 cells (72 h) was 4.2e-06 M; in the series with AMO-1 cells (Homo sapiens, AMO1, 72 h), 7.3e-07 M.

Take `CCc1c2c(nn1C)CN(CCOC)CCCCn1c(C(=O)O)c(CCCOc3cccc4cc(F)ccc34)c3ccc(Cl)c-2c31` (racemic) [Example 131, (rac)-4-chloro-3-ethyl-7-{3-[(6-fluoronaphthalen-1-yl)oxy]propyl}-14-(2-methoxyethyl)-2-methyl-10,11,12,13,14,15-hexahydro-2H-pyrazolo[3′,4′:8,9][1,6]diazacycloundecino[10,11,1-hi]indole-8-carboxylic acid]: the values for the IC50 in the series on HMC-1-8 cells (72 h) and in the series on SUDHL10 cells [3] (setting [7]) were 1.3e-06 M and 1.5e-07 M, respectively. For the same compound, a half-maximal response with SUDHL10 cells [4] (Homo sapiens, SU-DHL10, 3 h) (EC50) required 0.13 µM.

Regarding `CCc1c2c(nn1C)CN(CCCO)CCCCn1c(C(=O)O)c(CCCOc3cccc4cc(F)ccc34)c3ccc(Cl)c-2c31` (racemic) [Example 139, (rac)-4-chloro-3-ethyl-7-{3-[(6-fluoronaphthalen-1-yl)oxy]propyl}-14-(3-hydroxypropyl)-2-methyl-10,11,12,13,14,15-hexahydro-2H-pyrazolo[3′,4′:8,9][1,6]diazacycloundecino[10,11,1-hi]indole-8-carboxylic acid], the IC50 in the series on HMC-1-8 cells (72 h) was 5.7e-06 M; in the series with AMO-1 cells (Homo sapiens, AMO1, 72 h), 4.4e-07 M.

In the case of `CCc1c2c(nn1C)COCCCCn1c(C(=O)O)c(CCCOc3cccc4ccccc34)c3ccc(Cl)c-2c31` (single isomer, unassigned; enantiomer 1) [Example 20, 4-chloro-3-ethyl-2-methyl-7-[3-(naphthalen-1-yloxy)propyl]-2,10,11,12,13,15-hexahydropyrazolo[4′,3′:9,10][1,6]oxazacycloundecino[8,7,6-hi]indole-8-carboxylic acid (Enantiomer 1)], the IC50 in the series on HMC-1-8 cells (72 h) is 2.5e-06 M; in the series with AMO-1 cells (Homo sapiens, AMO1, 72 h), 8.7e-07 M; in the series with SUDHL10 cells [3] (setting [7]) it was 6.9e-07 M. Also, a half-maximal effect in the series with SUDHL10 cells [4] (Homo sapiens, SU-DHL10, 3 h) (EC50) was put at 0.39 µM.

On to `CCc1c2c(nn1C)CN(CC(F)F)CCCCn1c(C(=O)O)c(CCCOc3cccc4cc(F)ccc34)c3ccc(Cl)c-2c31` (single isomer, unassigned; enantiomer 1) [Example 75, (+)-4-chloro-14-(2,2-difluoroethyl)-3-ethyl-7-{3-[(6-fluoronaphthalen-1-yl)oxy]propyl}-2-methyl-10,11,12,13,14,15-hexahydro-2H-pyrazolo[3′,4′:8,9][1,6]diazacycloundecino[10,11,1-hi]indole-8-carboxylic acid-N-ethylethanamine salt (Enantiomer 1)], for which the results for the EC50 in the series on SUDHL5 cells [2] (listed as 075) and in the series with SUDHL10 cells [4] (listed as 075) were 0.55 µM and 3.5 µM, respectively. Moreover, the IC50 turned out to be 9.1e-07 M in the series on SUDHL5 cells [1] (read-out: Cytotox SUDHL5 [M] (median), IC50, median, listed as 075); 4.8e-06 M in the series with AMO-1 cells (listed as 075); 1.4e-06 M in the series with SUDHL10 cells [3] (read-out: Cytotox SUDHL10 [M] (median), IC50, median, listed as 075); 1.6e-06 M with SUDHL5 cells [5].

In the case of `CCc1nn(C)c2c1-c1c(Cl)ccc3c(CCCOc4cccc5cc(F)ccc45)c(C(=O)O)n(c13)CCCCOC2` (single isomer, unassigned; enantiomer 1) [Example 34, (+)-4-chloro-3-ethyl-7-{3-[(6-fluoronaphthalen-1-yl)oxy]propyl}-1-methyl-1,10,11,12,13,15-hexahydropyrazolo[4′,3′:9,10][1,6]oxazacycloundecino[8,7,6-hi]indole-8-carboxylic acid (Enantiomer 1)], the IC50 in the series with HMC-1-8 cells (72 h) was found to be 2e-06 M; with AMO-1 cells (Homo sapiens, AMO1, 72 h), 1.4e-06 M. Besides, a half-maximal effect with SUDHL10 cells [4] (Homo sapiens, SU-DHL10, 3 h) (EC50) was put at 0.93 µM.

`CCc1c2c(nn1C)CN(CCC(C)(C)O)CCCCn1c(C(=O)O)c(CCCOc3cccc4cc(F)ccc34)c3ccc(Cl)c-2c31` (single isomer, unassigned; enantiomer 1) [Example 140, 4-chloro-3-ethyl-7-{3-[(6-fluoronaphthalen-1-yl)oxy]propyl}-14-(3-hydroxy-3-methylbutyl)-2-methyl-10,11,12,13,14,15-hexahydro-2H-pyrazolo[3′,4′:8,9][1,6]diazacycloundecino[10,11,1-hi]indole-8-carboxylic acid (Enantiomer 1)]: the IC50 in the series with HMC-1-8 cells (72 h) is 1.4e-06 M.

Take `Cc1c2c(nn1C)COCCn1c(C(=O)O)c(CCCOc3cccc4ccccc34)c3ccc(Cl)c-2c31` (single isomer, unassigned) [Example 88, 11-chloro-9,10-dimethyl-1-{3-[(naphthalen-1-yl)oxy]propyl}-4,5,7,9-tetrahydropyrazolo[4′,3′:7,8][1,4]oxazonino[6,5,4-hi]indole-2-carboxylic acid]: the EC50 with SUDHL5 cells [2] (Homo sapiens, SU-DHL-5, 3 h) came to 7.4 µM; in the series with SUDHL10 cells [4] (Homo sapiens, SU-DHL10, 3 h) it was 4.3 µM. The IC50 with HMC-1-8 cells (72 h) was 4.5e-06 M; with AMO-1 cells (Homo sapiens, AMO1, 72 h) it was 6.7e-06 M; with SUDHL10 cells [3] (setting [7]), 4e-06 M.

Source of the values: patent publication US11478451B1, “Macrocyclic chlorine substituted indole derivatives” (Bayer Aktiengesellschaft, priority 2017, dated 2022).
